From patent US5756423A, “Method of controlling plants by inhibition of farnesyl pyrophosphate synthase” (Zeneca Limited, priority 1997, dated 1998)
Where two headings read alike, the source gives them in different places.

Key:
[1] = test system: velvetleaf (Abutilon theophrasti) (ABUTH); test: post-emergent herbicidal test, velvetleaf; assay type: in vivo; details: Abutilon theophrasti, post-emergence, read-out: ABUTH percent control; for pest or weed control at 4000 g/ha: 4.0 kg/ha
Description: (§1) Seeds of several different weed species were planted in sandy loam soil containing only trace organic matter. Propagules were sown in individuals rows using one species per row across the width of an aluminum flat (19.5×9.5×6 cm). The grass weeds planted were green foxtail (Setaria viridis) ("SETVI"), wild oat (Avena fatua) ("AVEFA"), barnyard grass (Enchinochloa crusgalli) ("ECHCG"). Broadleaf weeds utilized were wild mustard (Brassica kaber), also known as Sinapis arvensis, ("SINAR"), velvetleaf (Abutilon theophrasti) ("ABUTH") and morningglory (Ipomoea spp.) ("IPOSS"). Additionally, yellow nutsedge (Cyperus esculentus) ("CYPES"), nutlets were sown. Seeding depths ranged from 1.0 to 1.5 cm and plant densities ranged from 3 to 25 plants per row depending on individual plant species.
(§2) The flats were placed into a greenhouse and watered overhead by sprinkling. The greenhouse environmental systems provided the plants with natural and artificial (via metal halide lamps) lighting to attain 14 hours of light per day. Day and night temperatures were maintained at 29° and 21° C. respectively. The plants were grown for 10 to 12 days (or to the appropriate growth stage) prior to compound application. Grasses were sprayed at a 3 to 4 leaf stage and broadleaves at a 1 to 2 leaf stage. Yellow nutsedge was 5 to 7 cm tall at application.
(§3) Solutions of the test compounds were prepared by weighing out 18.8 and 74.7 mg for 1 and 4 kg/ha applications respectively, of the test compound into a 60 ml wide-mouth bottle, then dissolving the compound in 14.0 ml of deionized water containing 0.5% v/v Tween 20' (polyoxyethylene sorbitan monolaurate emulsifier) as a surfactant. Additional solvents, not exceeding 2 ml (15% of spray volume), were used if needed to dissolve the compound.
(§4) The plants were sprayed inside an enclosed linear spray table with the nozzle set at 30.5 cm (12 inches) above the foliage.
(§5) Treated plants were then returned to a greenhouse and watered daily without wetting the foliage.
(§6) The degree of weed control was evaluated 17-21 days after application and recorded as percentage of control as compared to the growth of the same species in an untreated control flat of the same. Percent control is the total injury to the plants due to all factors including: inhibited emergence, stunting, malformation, chlorosis and other types of plant injury. The control ratings range from 0 to 100 percent, where 0% represents no effect with growth equal to the untreated control and where 100% represents complete kill.

[2] = test system: morningglory (Ipomoea spp.) (IPOSS); test: post-emergent herbicidal test, morningglory; assay type: in vivo; details: Ipomoea, post-emergence, read-out: IPOSS percent control; for pest or weed control at 4000 g/ha: 4.0 kg/ha
Description: as §1, §2, §3, §4, §5, §6

[3] = test system: green foxtail (Setaria viridis) (SETVI); test: post-emergent herbicidal test, green foxtail; assay type: in vivo; details: Setaria viridis, post-emergence, read-out: SETVI percent control; for pest or weed control at 4000 g/ha: 4.0 kg/ha
Description: as §1, §2, §3, §4, §5, §6

[4] = test system: yellow nutsedge (Cyperus esculentus) (CYPES); test: post-emergent herbicidal test, yellow nutsedge; assay type: in vivo; details: Cyperus, post-emergence, read-out: CYPES percent control; for pest or weed control at 4000 g/ha: 4.0 kg/ha
Description: as §1, §2, §3, §4, §5, §6

[5] = test system: wild oat (Avena fatua) (AVEFA); test: post-emergent herbicidal test, wild oat; assay type: in vivo; details: Avena fatua, post-emergence, read-out: AVEFA percent control; for pest or weed control at 4000 g/ha: 4.0 kg/ha
Description: as §1, §2, §3, §4, §5, §6

[6] = test system: farnesyl pyrophosphate synthase in daffodil chromoplasts; test: inhibition of farnesyl pyrophosphate synthase in daffodil chromoplasts (14C-isopentenyl pyrophosphate incorporation); assay type: biochemical, Narcissus pseudonarcissus; details: unit inferred, IC50 values in nM, read-out: IC50
Method: The IC50 value may be determined as follows. Daffodil chromoplasts are diluted to a volume of 500 microliters in a buffer containing 0.5M sucrose, 3 mM MgCl2, 1 mM ethylenediaminetetraacetic acid, 20 mM N-tris[hydroxymethyl]methyl-2-aminoethanesulfonic acid, […] N-[2-hydroxyethyl]-piperazine-N'-[2-ethanesulfonic acid], 5 mM L-cysteine, 10 mM sodium fluoride, and 0.1% bovine serum albumin at pH 7.7. The inhibitor to be tested may be dissolved in water other suitable solvent and then added to the reaction mixture. The assay is started by the addition of ^14 C-labeled isopentenyl pyrophosphate (52 Ci/mol) to give a final concentration in the assay of about 3 micromolar. The mixture is incubated at 30° C. with gentle agitation for a period of about 30 min. The reaction may be stopped by the addition of 0.5 mL of saturated NaCl and 2 mL of n-butanol saturated with water. After thorough mixing, the turbid suspensions are centrifuged briefly to separate the layers, and 1 mL of the bright yellow upper butanol layer is added to 10 mL of a suitable scintillation fluid which gives a single phase. The butanol soluble radioactivity is then measured in a scintillation counter.
In addition, the problem of variable quenching differences among different experiments can be essentially eliminated by determining the incorporation of radioactivity relative to controls. Each set of experiments requires two control tubes identical to the test samples except that they contain no inhibitor. One of these is quenched immediately (TO sample) and one is quenched at the end of the normal incubation period (T100 sample).
For each concentration of inhibitor examined the % residual activity is determined from the formula [formula]
Tightly closed daffodil flowers (Narcissus pseudonarcissus) were allowed to open at room temperature. […] Coronae were placed in twice their weight of isolation buffer consisting of 67 mM potassium phosphate, 0.74M sucrose, 5 mM MgCl2, and 0.2% polyvinyl-pyrrolidone at pH 7.6 and were disrupted by 30 seconds of homogenization at high speed in a Waring-type blender. The mixture was filtered through several layers of cheesecloth and 2 layers of 100 micron nylon mesh, and the resulting filtrate was centrifuged at 1000×g for 10 minutes. The pellet was discarded and supernatant was centrifuged at 22,000×g for 20 minutes. […] This solution was centrifuged at 22,000×g for 20 minutes to give orange pellets which were suspended in a buffer of 100 mM tris(hydroxymethyl)aminomethane at pH 7.6 containing 5mM MgCl2 and 2 mM dithiothreitol (1 ml per 10 coronae). This solution was frozen in liquid nitrogen and then stored at -80° C.
Thawed daffodil chromoplasts (100-150 microliters) were diluted to a final volume of 500 microliters in a buffer containing 0.5M sucrose, 3 mM MgCl2, 1 mM ethylenediaminetetraacetic acid, 10 mM N-[2-hydroxyethyl]piperazine-N^1 -[2-ethanesulfonic acid], 5 mM L-cysteine, 10 mM sodium fluoride, and 0.1% bovine serum albumin at pH 7.7. The inhibitor to be tested was dissolved in water or other suitable solvent and was added to the reaction mixture. The assay was started by the addition of ^14 C-labeled isopentenyl pyrophosphate (52 Ci/mol) to give a final concentration in the assay of about 3 micromolar. The mixture was incubated at 30° C. with gentle agitation for a period of about 30 minutes. The reaction was stopped by the addition of 0.5 mL of saturated NaCl and 2 mL of n-butanol saturated with water. After thorough mixing, the turbid suspensions were centrifuged briefly to separate the layers, and 1 mL of the bright yellow upper butanol layer was added to 10 mL of a suitable scintillation fluid which gave a single phase. The butanol soluble radioactivity was then measured in a scintillation counter. Each set of experiments required two control tubes identical to the test samples except that they contain no inhibitor.

[7] = test system: wild mustard (Brassica kaber), also known as Sinapis arvensis (SINAR); test: post-emergent herbicidal test, wild mustard; assay type: in vivo; details: Brassica, post-emergence, read-out: SINAR percent control; for pest or weed control at 4000 g/ha: 4.0 kg/ha
Description: as §1, §2, §3, §4, §5, §6

[8] = test system: barnyard grass (Enchinochloa crusgalli) (ECHCG); test: post-emergent herbicidal test, barnyard grass; assay type: in vivo; details: Echinochloa crus-galli, post-emergence, read-out: ECHCG percent control; for pest or weed control at 4000 g/ha: 4.0 kg/ha
Description: as §1, §2, §3, §4, §5, §6

[9] = post-emergent, 17-21 days after application
[10] = post-emergent, 1.0 kg/ha (*), 17-21 days after application

SMILES | pest or weed control at 4000 g/ha [1, 9] [%] | pest or weed control at 4000 g/ha [2, 9] [%] | pest or weed control at 4000 g/ha [3, 9] [%] | pest or weed control at 4000 g/ha [4, 9] [%] | pest or weed control at 4000 g/ha [5, 9] [%] | IC50 ([6]; Table I) [nM] | IC50 ([6]; Table II) [nM] | pest or weed control at 4000 g/ha [7, 9] [%] | pest or weed control at 4000 g/ha [8, 9] [%] | pest or weed control at 1000 g/ha [1, 10] [%] | pest or weed control at 1000 g/ha [2, 10] [%] | pest or weed control at 1000 g/ha [3, 10] [%] | pest or weed control at 1000 g/ha [4, 10] [%] | pest or weed control at 1000 g/ha [5, 10] [%] | pest or weed control at 1000 g/ha [7, 10] [%] | pest or weed control at 1000 g/ha [8, 10] [%] | further results
O=P(O)(O)C(O)(C1CCCCN1)P(=O)(O)O (stereo not drawn) [Compound 9] | 30 | 30 | 100 | 15 | 60 | 209 | 209 | 100 | 30 | – | – | – | – | – | – | – | –
CC1CCCCN1CC(P(=O)(O)O)P(=O)(O)O (stereo not drawn) [Compound 10] | 50 | 90 | 85 | 5 | 100 | 83 | 83 | 100 | 85 | – | – | – | – | – | – | – | –
CC1CCC(C)N1CC(P(=O)(O)O)P(=O)(O)O (stereo not drawn) [Compound 11] | 0 | 30 | 50 | 0 | 30 | 650 | 610 | 95 | 50 | – | – | – | – | – | – | – | –
CC(C)CNCC(P(=O)(O)O)P(=O)(O)O [Compound 12] | 98 | 90 | 98 | 70 | 100 | 150 | 150 | 100 | 98 | – | – | – | – | – | – | – | –
CCN(CC)CC(P(=O)(O)O)P(=O)(O)O [Compound 13] | – | – | – | – | – | 240 | 240 | – | – | 15 | 10 | 80 | 5 | 40 | 95 | 40 | –
CCCCNCC(P(=O)(O)O)P(=O)(O)O [Compound 14] | – | – | – | – | – | 347 | 347 | – | – | 20 | 10 | 95 | 15 | 70 | 85 | 90 | –
CONCC(P(=O)(O)O)P(=O)(O)O [Compound 15] | – | – | – | – | – | 6310 | 6310 | – | – | – | – | – | – | – | – | – | pest or weed control at 1000 g/ha [1]: 0%; pest or weed control at 1000 g/ha [2]: 0%; pest or weed control at 1000 g/ha [3]: 0%; pest or weed control at 1000 g/ha [4]: 0%; pest or weed control at 1000 g/ha [5]: 0%; pest or weed control at 1000 g/ha [7]: 0%; pest or weed control at 1000 g/ha [8]: 0%
C=CCCNCC(P(=O)(O)O)P(=O)(O)O [Compound 16] | – | – | – | – | – | 316 | 316 | – | – | 10 | 10 | 90 | 20 | 80 | 100 | 100 | –
CCCCCCNCC(P(=O)(O)O)P(=O)(O)O [Compound 17] | – | – | – | – | – | 316 | 316 | – | – | 0 | 10 | 60 | 0 | 75 | 50 | 50 | –
C=CCNCC(P(=O)(O)O)P(=O)(O)O [Compound 18] | – | – | – | – | – | 26 | 26 | – | – | – | – | – | – | – | – | – | pest or weed control at 1000 g/ha [1]: 30%; pest or weed control at 1000 g/ha [2]: 70%; pest or weed control at 1000 g/ha [3]: 98%; pest or weed control at 1000 g/ha [4]: 50%; pest or weed control at 1000 g/ha [5]: 100%; pest or weed control at 1000 g/ha [7]: 100%; pest or weed control at 1000 g/ha [8]: 98%
CCCN(CCC)CC(P(=O)(O)O)P(=O)(O)O [Compound 19] | – | – | – | – | – | 32 | 32 | – | – | 100 | 60 | 98 | 10 | 100 | 100 | 100 | –
